Measurements published in publication PMC7733455, “A novel multistage antiplasmodial inhibitor targeting Plasmodium falciparum histone deacetylase 1” (Cell Discovery, 2020).
Values joined by “and” are separate entries in the source; they are usually repeats but may differ in a detail not shown here. Identical values can stand only once.

Legend:
[1] = Pharmacokinetic assay in mice; assay type: in vivo, BALB/c mice; details: 5 mg/kg i.p.
Experimental: Five female BALB/c mice (6–8 weeks, 18–19 g) per group were purchased from JH Laboratory Animal Co., Ltd. All mice were raised at controlled temperature and humidity and had free access to food and water. Compounds were dissolved in 5% DMSO and diluted with 20% aqueous 2-hydroxypropyl-β-cyclodextrin solution to a stock concentration of 0.5 mg/mL. Each mouse was i.p. injected with the compound solution at a dose of 5 mg/kg. Blood samples collected by anticoagulant (K2EDTA)-containing tubes at 0.25, 0.5, 1, 2, 4, 8, and 24 h after injection were centrifuged at 2000× g at 4 °C for 5 min to obtain plasma. LC-MS/MS analysis of samples was carried out by an ACQUITY UPLC HSS T3 1.8-μm column. The mobile phase was a mixture of phase A (0.1% formic acid in water) and phase B (0.1% formic acid in acetonitrile), which ran in gradient mode at a flow rate of 0.6 mL/min at 60 °C. Mass spectra were obtained on an API6500 triple quadrupole equipped with an ESI source. Propranolol was used as an internal standard. The plasma concentrations of the compounds were analyzed, and the pharmacokinetic parameters were calculated via WinNonlin.

[2] = target: T1, hHDAC2 (Homo sapiens, UniProt Q92769); assay: Human HDAC inhibition assay, hHDAC2; assay type: biochemical; details: performed only once; read-out: Inhibitory Activity IC50, hHDAC2
T1 construct: purchased BPS Bioscience 5002
Experimental: SAHA and suramin were used as positive controls. The tested compounds were dissolved into 20 mM stock in 100% DMSO. […] Ten microliters of trypsin and Ac-peptide substrate/Tris buffer solution were added to start the reaction, followed by a 1-h incubation at room temperature for HDACs 1–3 and 6. Ten microliters of Ac-peptide substrate/Tris buffer solution was added to start the reaction, followed by a 4-h incubation at room temperature and a further 2-h incubation with trypsin solution for HDAC8 and Sirt 2. […] This experiment was performed only once.

[3] = tested on: P. yoelii; assay: In vivo blood-stage inhibition assay; set-up: species or system Plasmodium yoelii in BALB/c mice
Experimental: Experiment 1: Five female BALB/c mice (6 weeks, 18 g) from each experimental group were infected with 1 × 10^5 rodent malaria parasite P. yoelii via intraperitoneal (i.p) injection. After 24 h, the mice were treated with 30, 60, or 90 mg/kg/day JX21108 via i.p injection and 20 mg/kg/day piperaquine phosphate (PPQ) as a positive control for 5 days. DMSO (5%) was used as a blank control.
Experiment 2: To analyze the differences in drug potency between racemic and enantiopure forms of JX21108, five female BALB/c mice (6 weeks, 18 g) per group were treated with 60 mg/kg/day (+)-JX21108, (−)-JX21108, or JX21108 as described above. Blood smears were made daily from the blood of veins and stained by Giemsa. Parasitemia was counted from at least 5000 RBCs by microscopy. The bodyweight of the mice and the number of deaths were recorded daily. All the graphs were generated by GraphPad Prism. All experimental procedures followed the National Institutes of Health Guide for the Care and Use of Laboratory Animals, as well as the guidelines of the Animal Welfare and Committee of Institut Pasteur of Shanghai, Chinese Academy of Science, IACUC issue No. A2018009.

[4] = In vitro cytotoxicity analysis (CellTiter-Glo), HepG2; details: human, HepG2 cells
Experimental: (§1) In all, 1% DMSO was used as a negative control. The inhibition of each drug was normalized to that of the DMSO control. EC50 was calculated by GraphPad Prism. Three independent assays with two technical replicates each time were conducted in this experiment.

[5] = tested on: HepG2 cells; assay: as above
Experimental: as §1

[6] = tested on: 3D7^HDA1-glmS; assay: Sensitivity of transgenic parasites to JX21108, 3D7^HDA1-glmS; assay type: cell-based; details: Plasmodium falciparum, 3D7, 4 h, read-out: EC50 for 3D7^HDA1-glmS
Experimental: Highly synchronized schizont-stage parasites were prepared and treated as described above, with adjustments. […] After washing, parasites were cultured in new CM for another 68 h. Parasite growth was monitored by SYBR Green I staining, as described above. The EC50 was calculated by GraphPad Prism.

[7] = Liver microsome metabolism assay, human; assay type: in vitro ADME
Experimental: Liver microsomes (0.5 mg/mL) were purchased from Corning. Ketanserin was selected as a positive control. The tested compounds were first dissolved in DMSO to a concentration of 10 mM and then diluted to 0.5 mM with acetonitrile. Liver microsome buffer was used to dilute the compounds to a working concentration of 1.5 µM, 30 µL of which was mixed with 15 µL of 6 mM NADPH at 37 °C. At 0, 5, 15, 30, and 45 min after incubation, 135 µL of acetonitrile was added to quench the reaction. The mixture was shaken on a vortex mixer (IKA, MTS 2/4) for 10 min at 600 rpm/min and then centrifuged at 5594× g for 15 min (Thermo Multifuge×3R). The supernatant was diluted 1:1 into distilled water, and analyzed by LC-MS/MS.

[8] = tested on: P. falciparum GB4; assay: 3-day SYBR Green I GIA, strain GB4; assay type: cell-based; details: Plasmodium falciparum; GB4 resistant to chloroquine; read-out: Resistant isolates EC50, GB4
Experimental: A 3-day SYBR Green I inhibition EC50 assay was performed as described previously. Briefly, highly synchronized ring-stage parasites by 5% sorbitol (1% parasitemia and 2% hematocrit) were incubated in a 96-well plate with compounds in a total volume of 200 μL. […] The parasites were cultured for 72 h before SYBR Green I staining as described above. The EC50 was calculated by GraphPad Prism. DHA was used as a positive control, and the final concentration of DMSO was 1%.

[9] = tested on: P. falciparum Dd2; assay: 3-day SYBR Green I GIA, multidrug-resistant strain Dd2; assay type: cell-based, Plasmodium falciparum; details: Plasmodium falciparum, 72 h; 3-day SYBR Green I GIA, multidrug-resistant strain Dd2; read-out: Antiplasmodial activity EC50, Dd2
Method in brief: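 Sorbitol-synchronized ring-stage parasites at 1% parasitemia and 2% hematocrit, cultured 72 h with compounds at 1% DMSO final. Growth read by SYBR Green I staining. EC50 from curve fitting.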

[10] = female, BALB/c, mouse, plasma, ip
[11] = 30 mg/kg and 60 mg/kg treatment groups, i.p., 5 days

T1 sequence (Q92769 whole entry): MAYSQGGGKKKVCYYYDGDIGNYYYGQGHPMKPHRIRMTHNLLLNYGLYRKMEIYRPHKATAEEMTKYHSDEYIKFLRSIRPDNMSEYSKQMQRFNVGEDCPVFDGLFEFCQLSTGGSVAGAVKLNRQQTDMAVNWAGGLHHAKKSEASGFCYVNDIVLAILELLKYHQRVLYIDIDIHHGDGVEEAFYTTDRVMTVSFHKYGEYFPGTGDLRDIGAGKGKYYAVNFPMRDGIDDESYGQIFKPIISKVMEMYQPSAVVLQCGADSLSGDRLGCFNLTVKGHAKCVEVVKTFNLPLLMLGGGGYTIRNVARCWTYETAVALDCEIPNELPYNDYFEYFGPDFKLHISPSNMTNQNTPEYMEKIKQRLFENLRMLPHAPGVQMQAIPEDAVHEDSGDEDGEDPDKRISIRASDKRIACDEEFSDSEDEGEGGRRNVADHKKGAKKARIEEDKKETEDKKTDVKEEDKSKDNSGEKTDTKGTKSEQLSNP

Work on Cl.Cn1cc(CN2CCC3(CCN(c4ncc(C(=O)NO)cn4)C3)C2)c2cc(C#N)ccc21 (centres unmarked) [JX21108] yielded a V/F [1] of 15.4 L/kg, an AUC(0-inf) [1, 10] of 434 ng·h/mL and an AUC(0-t) [1, 10] of 432 ng·h/mL. The half-life [1, 10] was 55.6 min, the CL/F ([1]; female, BALB/c, mouse, plasma, ip, read-out: CL/F (converted)) was 192 mL/min/kg and the Cmax ([1]; female, BALB/c, mouse, plasma, ip, read-out: Cmax) was 511 ng/mL. For the same molecule, the Tmax ([1]; female, BALB/c, mouse, plasma, ip, read-out: Tmax) was 15 min, the IC50 [2] was 4.6 nM and the “day on which parasites were completely cleaned up” value [3, 11] was 17 days. The “day till which parasites were detected” value [3, 11] was 8 days, the relapse of malaria ([3]; 90 mg/kg treatment group, i.p., 5-day treatment) was “no relapse of malaria was observed” and the “survival of infected mice” value ([3]; JX21108-treated groups 30–90 mg/kg) was “all the mice survived”. For the same molecule, the “in vivo antiplasmodial activity in P. yoelii-infected mice” value ([3]; all doses tested (30–90 mg/kg), i.p., 5 days) was “strong in vivo antiplasmodial activity”, the EC50 at 72 h [4] was 3820 ± 145 nM and the “Selectivity index for HepG2 (EC50 HepG2/EC50 3D7)” value [5] was ~ 1060 and 1069 and 1060. The EC50 [6] was 210 ± 25 nM, the “CL in liver microsomes” value [7] was 3.34 mL/min/kg and the half-life at 1 µM ([7]; human liver microsomes, read-out: T1/2 in liver microsomes) was 521 min. The EC50 [8] was 2.4 ± 0.6 nM and the EC50 [9] was 4 nM.
